Results as given in patent publication US20070203233A1, “NOVEL 2-(alpha-N-PENTANONYL)BENZOATES, THEIR PREPARATION AND USE” (priority 2004, published 2007).
Marks after values point to notes of the source that are not given here.

Columns and labels:
[1] = test system: thrombus of artery-vein bypass in rats; assay: Effects on thrombosis of artery-vein bypass in rats; format: in vivo, SD rats; details: for Dry-weight of thrombus / Wet-weight of thrombus: once per day for 3 days; for Inhibition (%) of dry-weight of thrombus / Inhibition (%) of wet-weight of thrombus: vs. thrombus model group
Experimental: Testing methods are described in Chen-Qi, “Methodology for Pharmacological Research of Chinese Medicine”,People's Medical Publishing House, Sep. 1993, 1st ed., page 510. […] Equivalent amount of the vehicle was administered to the thrombus model group. The operation was conducted immediately after the final administration. […] The operation was conducted to separate the right common carotid artery and the left external jugular vein. A pre-weighed suture # 0 of 8 cm long was placed into the middle part of a polyethylene tube of 10 cm long. Then the tube was filled with normal saline, and connected at both ends to the cannula of 3 cm long filled with normal saline. One end of the tube was inserted into the left external jugular vein, and another end was inserted into the right common carotid artery. The blood flowed from the right common carotid artery to the polyethylene tube, and then flow back to the left external jugular vein, so as to construct a bypass circulation. […] The wet-weight of the thrombus was obtained by subtracting the weight of the suture and the paper from this total wet weight. […] The thrombus was taken out and weighed to obtain a total dry weight. The dry weight of the thrombus was obtained by subtracting the weight of the suture and the paper form this total dry weight. The results in each group were compared by student's t test. […] Testing Results

[2] = test system: model rats of middle cerebral artery thrombosis (MCAT); assay: Effects on cerebral infarct area of MCAT rats; format: in vivo, SD rats; details: for Cerebral infarct tissue weight/total brain weight (%): 24 h after operation, TTC staining; for Inhibition (%): cerebral infarct vs. model group; for cerebral infarct as compared with the model group (in words): 50 mg/kg, P<0.05
[3] = test system: model rats of middle cerebral artery thrombosis (MCAT); assay: Effects on neural symptoms of MCAT rats; format: in vivo, SD rats; parameters: key to Scores 6 hours / Scores 24 hours: 0/1 per test, summed (max 4); higher = more severe behavioral disorder; details: for Scores 6 hours: behavioral score 6 h after operation (full mark 4); for Scores 24 hours: behavioral score 24 h after operation (full mark 4)
Experimental: (1) Grouping and administration: […] Preventive administration was conducted by gavage one time per day for 3 days prior to the model being established. The model was established on day 4, and a dosage of one day was administered by gavage immediately after the model was established. Another dosage of one day was again administered by gavage 12 hours after the model was established. Equivalent amount of the vehicle was administered to the control group. […] Description of technique and early neuropathological consequences following middle cerebral artery occlusion. J Cereb Blood Flow Metab, 1981, 1: 53), and fixed in lateral decubitus position. A bowtype incision of 1.5 cm long was made at the midpoint between canthus and exterior auditory canal. Temporalis was broken and incised to expose temporal bone. […] The filter paper was removed after 30 min when the vascular became black. The localized tissue was washed with physiological brine, and sutured layer by layer. Then rats were placed back into the cages. By following the modified method of Bederson et al. […] (2) The animals were placed onto a smooth ground, and the resistance of contralateral shoulder to push was examined. “0” was recorded if the resistance of both shoulders were equal and strong; and “1” was recorded if the resistance of contralateral shoulder to push was decreased. […] (4) The tail of the rat was lifted 30 cm high away from the ground, and “1” was recorded if the animals ceaselessly circled contralaterally. “4” was full mark in accordance with the above-mentioned standard. The higher the score was, more severe the behavioral disorder of the animal was. 4. Results: The behavioral scores in each group were compared by student t test.

Thermal Stability = format: physicochemical; details: 60° C., 10 days, HPLC
The Stability to Light = format: physicochemical; details: 10 days, HPLC
[4] = The Stability of Aqueous Solution; details: for decomposed product detected (in words): after exposed to water for 24 hours; for wt % decomposed product: aqueous solution 0.2 mg/ml
Experimental: Compounds were dissolved in water to form aqueous solutions in a concentration of 0.2 mg/ml, and the amount of decomposed products were measured.
The amounts of decomposed products were determined in accordance with the test described in Pharmacopoeia of P.R. China, 2000 edition, appendix VD of part two, by HPLC method, C18 column, mobile phase of acetonitrile:0.02M sodium dihydrogen phosphate=40:60, detecting wavelength of 230 nm, flow rate of 1 ml/min.

[5] = The Stability to Humidity (high humidity test); format: physicochemical; details: 10 days, HPLC purity
[6] = 50 mg/kg by gavage, vs. model group
[7] = 100 mg/kg by gavage, vs. model group
[8] = 200 mg/kg by gavage, vs. model group

Row | Molecule | Cerebral infarct tissue weight/total brain weight (%) ([2]; 50 mg/kg by gavage) | Inhibition (%) ([2]; 50 mg/kg by gavage) | cerebral infarct as compared with the model group (in words) [2] | Cerebral infarct tissue weight/total brain weight (%) ([2]; 100 mg/kg by gavage) | Inhibition (%) ([2]; 100 mg/kg by gavage) | Cerebral infarct tissue weight/total brain weight (%) ([2]; 200 mg/kg by gavage) | Inhibition (%) ([2]; 200 mg/kg by gavage) | Scores 6 hours ([3]; 50 mg/kg by gavage) | Scores 24 hours ([3]; 50 mg/kg by gavage) | % inhibition at hour 24 [3, 6] | Scores 6 hours ([3]; 100 mg/kg by gavage) | Scores 24 hours ([3]; 100 mg/kg by gavage) | % inhibition at hour 24 [3, 7] | Scores 6 hours ([3]; 200 mg/kg by gavage) | Scores 24 hours ([3]; 200 mg/kg by gavage) | % inhibition at hour 24 [3, 8] | decomposed product detected, thermal stability (in words) (Thermal Stability) | decomposed product detected, stability to light (in words) (The Stability to Light) | wt % decomposed product ([4]; 0 hr) | wt % decomposed product ([4]; 1 hr) | further results
1 | CCCCC(=O)c1ccccc1C(=O)O.CCCCC(=O)c1ccccc1C(=O)O.c1ccc(CNCCNCc2ccccc2)cc1 [2-(α-n-pentanonyl)benzoate of N,N′-dibenzylethylene diamine] | 5.14 ± 2.17 % | 30.63% | significantly reduced | 4.68 ± 1.69 % | 41.06% | 4.60 ± 1.26 % | 39.55% | 3.45 ± 0.69 | 2.91 ± 0.70 | 20.05% | 3.45 ± 0.52 | 2.36 ± 0.67 | 36.73% | 3.27 ± 0.79 | 2.55 ± 0.52 | 31.64% | no decomposed product | no decomposed product | – | – | Dry-weight of thrombus ([1]; 50 mg/kg by gavage): 39.0 ± 10.8 mg; Wet-weight of thrombus ([1]; 50 mg/kg by gavage): 207.1 ± 45.3 mg; Inhibition (%) of dry-weight of thrombus ([1]; 50 mg/kg by gavage): 23.98%; Inhibition (%) of wet-weight of thrombus ([1]; 50 mg/kg by gavage): 20.10%; Dry-weight of thrombus ([1]; 100 mg/kg by gavage): 29.9 ± 13.6 mg; Wet-weight of thrombus ([1]; 100 mg/kg by gavage): 157.9 ± 67.9 mg; Inhibition (%) of dry-weight of thrombus ([1]; 100 mg/kg by gavage): 41.72%; Inhibition (%) of wet-weight of thrombus ([1]; 100 mg/kg by gavage): 39.08%; Dry-weight of thrombus ([1]; 200 mg/kg by gavage): 32.3 ± 12.5 mg; Wet-weight of thrombus ([1]; 200 mg/kg by gavage): 191.7 ± 34.8 mg; Inhibition (%) of dry-weight of thrombus ([1]; 200 mg/kg by gavage): 37.04%; Inhibition (%) of wet-weight of thrombus ([1]; 200 mg/kg by gavage): 26.04%
2 | N,N′-dibenzylethylenediamine 2-(α-hydroxypentyl)benzoate | 5.85 ± 2.32% | 21.05% | – | 5.50 ± 1.82 % | 30.73% | 5.09 ± 2.14 % | 33.11% | 3.45 ± 0.52 | 3.09 ± 0.54 | 15.11% | 3.45 ± 0.52 | 2.91 ± 0.70 | 21.98% | 3.36 ± 0.67 | 2.82 ± 0.87 | 24.40% | – | – | – | – | alleviation on neural symptoms at 24 hours after the operation (in words) ([3]; 50 mg/kg, vs. model group, P<0.01 or P<0.05): significantly alleviation
3 | CCCCC(=O)c1ccccc1C(=O)[O-].[K+] [Potassium 2-(α-n-pentanonyl)benzoate, potassium 2-(α-n-pentanonyl)benzoate] | 5.63 ± 1.52 % | 24.02% | significantly reduced | 5.09 ± 2.04 % | 35.89% | 4.38 ± 1.54 % | 42.44% | 3.27 ± 0.79 | 2.91 ± 0.70 | – | 3.36 ± 0.67 | 2.82 ± 0.75 | – | 3.20 ± 0.63 | 2.10 ± 0.32***^,s | – | no decomposed product | no decomposed product | 0 wt % | 0 wt % | Dry-weight of thrombus ([1]; 50 mg/kg by gavage): 38.3 ± 15.4 mg; Wet-weight of thrombus ([1]; 50 mg/kg by gavage): 208.8 ± 45.3 mg; Inhibition (%) of dry-weight of thrombus ([1]; 50 mg/kg by gavage): 25.34%; Inhibition (%) of wet-weight of thrombus ([1]; 50 mg/kg by gavage): 19.44%; Dry-weight of thrombus ([1]; 100 mg/kg by gavage): 35.6 ± 14.0 mg; Wet-weight of thrombus ([1]; 100 mg/kg by gavage): 192.6 ± 41.2 mg; Inhibition (%) of dry-weight of thrombus ([1]; 100 mg/kg by gavage): 30.60%; Inhibition (%) of wet-weight of thrombus ([1]; 100 mg/kg by gavage): 25.69%; Dry-weight of thrombus ([1]; 200 mg/kg by gavage): 28.3 ± 16.3 mg; Wet-weight of thrombus ([1]; 200 mg/kg by gavage): 157.0 ± 51.4 mg; Inhibition (%) of dry-weight of thrombus ([1]; 200 mg/kg by gavage): 44.83%; Inhibition (%) of wet-weight of thrombus ([1]; 200 mg/kg by gavage): 39.43%; decomposed product detected (in words) [4]: no decomposed product; wt % decomposed product ([4]; 2 hr): 0 wt %; wt % decomposed product ([4]; 4 hr): 0 wt %; wt % decomposed product ([4]; 16 hr): 0 wt %; wt % decomposed product ([4]; 24 hr): 0 wt %
4 | CCCCC(O)c1ccccc1C(=O)[O-].[K+] (stereo not drawn) [Potassium 2-(α-hydroxypentyl)benzoate] | 6.16 ± 2.46% | 16.87% | – | 5.73 ± 2.20 % | 27.83% | 5.37 ± 2.00 % | 29.43% | 3.50 ± 0.71 | 3.30 ± 0.48 | – | 3.55 ± 0.52 | 3.00 ± 0.89 | – | 3.45 ± 0.52 | 2.73 ± 0.79 | – | – | – | 0 wt % | 0.2 wt % | wt % decomposed product ([4]; 2 hr): 0.36 wt %; wt % decomposed product ([4]; 4 hr): 0.75 wt %; wt % decomposed product ([4]; 16 hr): 4.5 wt %; wt % decomposed product ([4]; 24 hr): 5.3 wt %; decomposition after absorbing moisture (in words) [5]: highly decomposed
5 | Calcium 2-(α-hydroxypentyl)benzoate | 6.39 ± 2.33% | 13.77% | – | 5.82 ± 1.90 % | 26.70% | 5.41 ± 1.77 % | 28.91% | 3.45 ± 0.52 | 3.36 ± 0.50 | 7.69% | 3.55 ± 0.52 | 3.09 ± 0.70 | 17.16% | 3.45 ± 0.52 | 2.91 ± 0.54 | 21.98% | – | – | – | – | –
6 | CCCCC(=O)c1ccccc1C(=O)[O-].[Na+] [Sodium 2-(α-n-pentanonyl)benzoate, sodium 2-(α-n-pentanonyl)benzoate] | – | – | significantly reduced | – | – | – | – | – | – | – | – | – | – | – | – | – | no decomposed product | no decomposed product | 0 wt % | 0 wt % | decomposed product detected (in words) [4]: no decomposed product; wt % decomposed product ([4]; 2 hr): 0 wt %; wt % decomposed product ([4]; 4 hr): 0 wt %; wt % decomposed product ([4]; 16 hr): 0 wt %; wt % decomposed product ([4]; 24 hr): 0 wt %
